Assay results taken from patent US11999803B2, “Proteasome inhibitors” (University of Kentucky Research Foundation, priority 2018, dated 2024).

Columns and labels:
[1] = test system: APP transgenic mouse model of AD (Tg2576); assay: Passive avoidance test in Tg2576 mice; type: in vivo; conditions: Student's t-test, p-value<0.05, n=8
Experimental: (§1) FIG. 1A includes a schematic illustration showing the experimental schedule for a behavior test to assess cognitive impairment following administration of YU102 or YU102 epimer, as compared to control. YU102 is an inhibitor of the immunoproteasome subunit LMP2.
(§2) With reference to FIG. 1C, upon the completion of the Morris water maze test, Tg2576 mice were evaluated in the probe trial (left) and passive avoidance test (right). Statistical analyses of probe trial and passive avoidance were performed via Student's t-test.

[2] = test system: APP transgenic mouse model of AD (Tg2576); assay: Morris water maze test in Tg2576 mice; type: in vivo
Experimental: as §1
With reference to FIG. 1B, cognitive function in Tg2576 mice was evaluated by the Morris water maze test, and escape latency time (left) and escape distance of the mice (right) was assessed. Statistical analyses of escape latency and escape distance were performed via two-way ANOVA.

LMP2 [3] = molecular target: T1, LMP2 (Mus musculus, UniProt P28076); assay: Proteasome activities in tissue of treated mice, fluorogenic substrates; type: in vivo; conditions: Tg2576 mice, p-value<0.05, n=3
T1 construct: proteasome activities in brain, spleen, and liver tissue collected from mice treated with vehicle (control), YU102 (10 mg/kg); from tissue; host or cells: brain, spleen and liver tissue of Tg2576 mice
Experimental: With reference to FIG. 1D, proteasome activities in brain, spleen, and liver tissue collected from mice treated with vehicle (control), YU102 (10 mg/kg), or YU102 epimer (10 mg/kg) were measured using fluorogenic substrates.

[4] = test system: APP transgenic mouse model of AD (Tg2576); assay: Probe trial in Tg2576 mice; type: in vivo; conditions: Student's t-test, p-value<0.05, n=8
Experimental: as §1, §2

LMP2 [5] = assay: LMP2 inhibition (figure legend); type: biochemical
[6] = test system: LPS-stimulated BV-2 cells; assay: Cytokine and chemokine protein array in LPS-stimulated BV-2 cells; type: cell-based; conditions: 3 μM with LPS (1 μg/mL)
Experimental: With reference to FIG. 2, cytokine production was assessed in LPS-stimulated BV-2 cells. Cytokine and chemokine protein array blots were obtained from BV-2 cells treated with vehicle, LPS (1 μg/mL) alone, and YU102 (3 μM) or ONX0914 (3 μM) with LPS (1 μg/mL). The signal intensity of each cytokine or chemokine was expressed relative to the mean of the intensity of the corresponding spots from vehicle control sample. The bar graph depicts the fold change of each cytokine or chemokine (mean).

Structure (SMILES)	step through latency, difference between control and treated mice [1]	cognitive deficits ([2]; APPsw (Tg2576) mice, FIGS. 1A-1D)	escape distance, difference between control and treated mice ([2]; Tg2576 mice, days 3-5, two-way ANOVA, p-value<0.05, n=8)	LMP2 inhibitory activity in spleen and liver tissues, difference between YU102-treated and YU102 epi-treated group (LMP2 [3]; 10 mg/kg each)	LMP2 inhibitory activity in spleen and liver tissues, difference between control and treated group (LMP2 [3]; 10 mg/kg)	time spent in target quadrant, difference between control and treated mice [4]	LMP2 inhibition (LMP2 [5])	cytokine production [6]
CC(=O)NCC(=O)N1CCC[C@H]1C(=O)N[C@@H](Cc1ccccc1)C(=O)N[C@@H](CC(C)C)C(=O)[C@@]1(C)CO1 [YU102]	statistically significant	amelioration of cognitive deficits	statistically significant	statistically significant	statistically significant	statistically significant	selective LMP2 inhibitor	suppression of cytokine production
CC(=O)NCC(=O)N1CCC[C@H]1C(=O)N[C@@H](Cc1ccccc1)C(=O)N[C@@H](CC(C)C)C(=O)[C@]1(C)CO1 [YU102 epi]	–	–	–	–	–	–	does not inhibit LMP2	–
